Measured values as given in patent publication US11326207B2, “Sequencing using non-natural nucleotides” (Ultima Genomics, Inc., priority 2017, dated 2022).

Tests used:
Type in all cases: biochemical
Bst 2.0 DNA polymerase [1] = assay: Homopolymer assay of dCTP analogs (Example 9); conditions: rates of fluorescence, homopolymer template
Protocol: (§1) A homopolymer assay was performed to investigate the effectiveness of E-dCTP and P-dUTP as nucleotide analogs of dCTP. 50 μl solutions containing a template nucleic acid molecule and primer and Bst 2.0 DNA polymerase are placed in a microplate reader and the fluorescence of the solution is measured in kinetic mode. A fluorescein attached to an oligonucleotide (indicated with a * in FIG. 7) was quenched in the substrate due to the proximity of complementary G bases. Addition of dCTP and/or dCTP analogs causes extension of the 3′ end of the primer, formation of double-stranded DNA, and unquenching of the fluorescein. The fluorescence increases with the addition of multiple nucleotides.

Bst 2.0 DNA polymerase [2] = assay: Homopolymer assays of nucleotide analogs (Example 10); conditions: Natural Nucleotide C (dCTP = 1); template oligo 333, primer 221L
Protocol: as §1
Additional homopolymer assays were performed according to the procedure outlined in Example 8 using different nucleotides and nucleotide analogs.
To test for dUTP or TTP incorporation, oligo 332 was used as a template and oligo 221L was used as a primer. To test for dCTP incorporation, oligo 333 was used as a template and oligo 221L was used as a primer. To test for dGTP incorporation, oligo 334 was used as a template and oligo 221L was used as a primer. To test for dATP incorporation, hairpin oligo 221 was used as both a primer and template.

Bst DNA polymerase = target: T1, Bst DNA polymerase (Geobacillus stearothermophilus, UniProt P52026); assay: Replacement of dCTP with P-dCTP, context metric (Example 10)
T1 sequence (P52026 1-876): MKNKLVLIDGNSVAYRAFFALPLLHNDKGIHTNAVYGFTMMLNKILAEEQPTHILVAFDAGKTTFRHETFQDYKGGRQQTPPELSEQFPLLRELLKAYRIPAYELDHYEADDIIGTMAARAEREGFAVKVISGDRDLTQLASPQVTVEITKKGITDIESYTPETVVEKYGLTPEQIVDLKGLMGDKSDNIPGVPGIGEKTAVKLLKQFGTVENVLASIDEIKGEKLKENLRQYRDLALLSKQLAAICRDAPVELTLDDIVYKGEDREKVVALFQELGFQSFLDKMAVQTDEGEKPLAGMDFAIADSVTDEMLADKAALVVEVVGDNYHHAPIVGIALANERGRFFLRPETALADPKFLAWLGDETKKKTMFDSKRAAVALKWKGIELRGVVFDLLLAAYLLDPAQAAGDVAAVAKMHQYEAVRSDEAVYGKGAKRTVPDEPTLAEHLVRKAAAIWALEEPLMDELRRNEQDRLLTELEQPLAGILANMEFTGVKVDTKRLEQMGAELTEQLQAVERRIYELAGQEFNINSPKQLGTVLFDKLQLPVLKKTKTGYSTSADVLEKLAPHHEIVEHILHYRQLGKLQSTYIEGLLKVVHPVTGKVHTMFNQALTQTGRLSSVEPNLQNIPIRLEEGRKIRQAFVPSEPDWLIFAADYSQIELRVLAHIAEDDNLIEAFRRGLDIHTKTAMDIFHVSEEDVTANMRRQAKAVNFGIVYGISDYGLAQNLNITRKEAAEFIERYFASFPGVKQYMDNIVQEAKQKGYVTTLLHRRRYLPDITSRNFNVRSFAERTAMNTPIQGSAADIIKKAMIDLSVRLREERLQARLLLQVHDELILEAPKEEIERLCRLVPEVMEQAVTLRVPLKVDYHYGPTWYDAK
Description: A microscope slide surface was modified with polyaminosilane to allow the attachment of 1 micron beads each containing one of three different oligonucleotide templates. To each template was bound an oligonucleotide primer and Bst DNA polymerase. Solutions of mixtures of labeled and unlabeled nucleotide, of one type at a time, were exposed to the surface, followed by a wash solution. The fluorescence of labeled beads was detected and quantitated. The fluorescence label was cleaved by treatment with tris(hydroxypropyl)phosphine (THP) after each step.
Context was measured for each experiment. Context is given by the context metric, C, which is defined as the (maximum-minimum signal)/average signal.
Experiments were performed replacing dCTP with P-dCTP for three different oligonucleotide templates.

C#Cc1cn([C@H]2C[C@H](O)[C@@H](COP(=O)(O)OP(=O)(O)OP(=O)(O)O)O2)c(=O)nc1N [E-dCTP, 5-ethynyl-2′-deoxycytidine 5′triphosphate]
rate of incorporation compared with natural dCTP (Bst 2.0 DNA polymerase [1]): much faster than that of natural dCTP | Relative Rate in Homopolymer Assay (Bst 2.0 DNA polymerase [2]): >1

Nc1ccn([C@H]2C[C@H](O)[C@@H](COP(=O)(O)OP(=O)(O)OP(=O)(O)O)O2)c(=O)n1 [dCTP, deoxycytidine triphosphate]
Relative Rate in Homopolymer Assay (Bst 2.0 DNA polymerase [2]): 1 | C (context metric) (Bst DNA polymerase; Oligonucleotide template 1): 0.85 | C (context metric) (Bst DNA polymerase; Oligonucleotide template 2): 0.72 | C (context metric) (Bst DNA polymerase; Oligonucleotide template 3): 0.70
